Test results published in US10398725B2, “Ophthalmic compositions and methods of use” (Veloce BioPharma, LLC, priority 2015, dated 2019).

Experiments:
Format in all cases: in vivo, human
[1] = tested on: rosacea blepharoconjunctivitis; test: Example 3B: person with rosacea blepharoconjunctivitis; details: before the PVP-I/DMSO gel
Source text: B. Rosacea Blepahritis; Treated with 1% PVP-I in 44% USP Grade DMSO with 4% Hydroxyethylcellulose in Water
A person with a past ocular history of glaucoma and pseudophakia presented with long standing ocular dryness, grittiness, periocular erythema and eyelid crusting. On facial inspection, nasal and facial telangiectasia with flushing were evident. Their topical medical regimen included Latanoprost 1 drop QHS OU, Brimonidine 1 drop BID OU, and Dorzolamide/Timolol 1 drop BID OU. The patient endorsed utilization of a variety of medicines and treatments to abate this condition, however, they were of little benefit. Failed therapies included topical steroids, antibiotics including azithromycin, combination medicines, and cyclosporine. Oral medicines including doxycycline and DHA/ALA/EPA were also ineffective.
Further towards the posterior tarsal area, dilated, engorged telangiectatic vessels were present. […] A diagnosis of rosacea blepharoconjunctivitis was made.
The patient was given a topical gel of 1% PVP-I in a dimethylsulfoxide (DMSO) vehicle that was prepared from a licensed compounding pharmacy. The treatment was administered twice daily and delivered by rubbing the gel onto the lash line and eyelid. […] Most prominently, much of the conjunctivitis, anterior lid erythema and thickening had reversed. […]

[2] = tested on: eyelid associated molluscum contagiosum; test: Example 21: patient with eyelid molluscum contagiosum; details: before the PVP-I/DMSO composition
Method: Eyelid Molluscum Contagiosum; Treated with 9% PVP-I in 39% USP Grade DMSO with 3% Hydroxyethylcellulose
This patient was suffering from an eyelid associated molluscum contagiosum. […] The process is often associated with pox virus infection of the epithelial layers. […] Cryotherapy with excision was eventually performed, however, the lesions recurred. Prepared was a composition as disclosed herein using 0.9% PVP-I in 39% DMSO with hydroxyethyl cellulose. The patient was treated by applying the solution topically to the eyelid and margin structures four times daily. […] The lesions had begun to involute and diminish in surface area.

[3] = tested on: Acanthamoeba corneal ulceration; test: Example 16: patient with Acanthamoeba corneal ulceration; details: before the PVP-I/DMSO composition
Source text: Acanthamoeba Corneal Ulceration; Treated with Aqueous 0.4% PVP-I in 39% USP Grade DMSO with Hydroxyethyl Cellulose
This patient was suffering from an Acanthamoeba corneal ulceration. In this type of infection there is often a history of contact lens use and home-made contact lens solutions, however, this is not a prerequisite. Acanthamoeba parasites are often introduced into the eye through a small break in the epithelium and gains foothold to the underlying structures. The patient endorses pain out of proportion with examination. […] The cornea contained multiple bullous lesions with enlarged corneal nerves. There was an overlying epithelial defect and faint ring-shaped infiltrate. The infiltrate had induced minimal stromalysis and the resultant cornea was not thinned. There was no hypopyon, however, cell and flare were present. Corneal cultures were taken, and Acanthamoeba species were identified on non-nutrient agar with E. coli overlay. […] Prepared was a composition as disclosed herein using 0.4% PVP-I in 39% DMSO with hydroxyethyl cellulose. The patient was treated by applying the solution topically to the eye six times daily. […] The corneal had begun the process of re-epithelialization and the ring ulcer began to lessen in intensity. […] A central corneal cicatrix was evident in the area of previous active infiltrate.

Compound | outcome of earlier therapies (patient history) [2] | outcome of earlier therapies (patient history) [3] | also measured
CC[C@H]1OC(=O)[C@H](C)[C@@H](O[C@H]2C[C@@](C)(OC)[C@@H](O)[C@H](C)O2)[C@H](C)[C@@H](O[C@@H]2O[C@H](C)C[C@H](N(C)C)[C@H]2O)[C@](C)(O)C[C@@H](C)CN(C)[C@H](C)[C@@H](O)[C@]1(C)O [azithromycin] | – | – | outcome of earlier therapies (patient history) [1]: Failed
O=C(O)c1ccccc1O [salicylic acid] | without benefit | – | –
CC(C)Cn1cnc2c(N)nc3ccccc3c21 [imiquimod] | without benefit | – | –
[H]/N=C(\N/C(=N/[H])NCCCCCCNC(=N)NC(=N)Nc1ccc(Cl)cc1)Nc1ccc(Cl)cc1 [chlorhexidine] | – | without benefit | –
N=C(N)c1ccc(OCCCOc2ccc(C(=N)N)cc2)cc1 [propamidine] | – | without benefit | –
